Values of other authors in patent publication US7723019B2, “Organic cation transporter preferentially expressed in hematopoietic cells and leukemias and uses thereof” (University of Kentucky Research Foundation, priority 2003, dated 2010).
“And” between values parts separate entries of the source, which are not always exact repeats. Equal entries are not always repeated. Where two headings read alike, the source gives them in different places.

How the values were obtained:
OCTN2 (SLC22A5) = biological target: T1, OCTN2 (SLC22A5) (Homo sapiens, UniProt O76082)
T1 sequence (O76082 1-557): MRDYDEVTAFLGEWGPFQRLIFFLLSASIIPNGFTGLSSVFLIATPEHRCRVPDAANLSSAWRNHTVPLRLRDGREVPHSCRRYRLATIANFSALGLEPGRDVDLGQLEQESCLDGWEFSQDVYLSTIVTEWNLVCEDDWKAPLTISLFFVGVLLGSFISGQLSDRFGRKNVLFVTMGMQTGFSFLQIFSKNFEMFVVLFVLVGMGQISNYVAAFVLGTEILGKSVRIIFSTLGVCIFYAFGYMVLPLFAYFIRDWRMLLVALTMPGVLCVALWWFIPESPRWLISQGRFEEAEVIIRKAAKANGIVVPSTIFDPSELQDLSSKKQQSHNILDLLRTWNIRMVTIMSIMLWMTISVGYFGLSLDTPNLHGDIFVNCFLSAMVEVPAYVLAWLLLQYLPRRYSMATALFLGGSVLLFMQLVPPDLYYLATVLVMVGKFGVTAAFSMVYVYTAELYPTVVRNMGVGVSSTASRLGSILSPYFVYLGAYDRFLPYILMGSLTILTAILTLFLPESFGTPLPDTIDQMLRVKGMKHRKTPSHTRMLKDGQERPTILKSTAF

OCT2 (SLC22A2) = biological target: T2, OCT2 (SLC22A2) (Homo sapiens, UniProt O15244)
T2 sequence (O15244 1-555): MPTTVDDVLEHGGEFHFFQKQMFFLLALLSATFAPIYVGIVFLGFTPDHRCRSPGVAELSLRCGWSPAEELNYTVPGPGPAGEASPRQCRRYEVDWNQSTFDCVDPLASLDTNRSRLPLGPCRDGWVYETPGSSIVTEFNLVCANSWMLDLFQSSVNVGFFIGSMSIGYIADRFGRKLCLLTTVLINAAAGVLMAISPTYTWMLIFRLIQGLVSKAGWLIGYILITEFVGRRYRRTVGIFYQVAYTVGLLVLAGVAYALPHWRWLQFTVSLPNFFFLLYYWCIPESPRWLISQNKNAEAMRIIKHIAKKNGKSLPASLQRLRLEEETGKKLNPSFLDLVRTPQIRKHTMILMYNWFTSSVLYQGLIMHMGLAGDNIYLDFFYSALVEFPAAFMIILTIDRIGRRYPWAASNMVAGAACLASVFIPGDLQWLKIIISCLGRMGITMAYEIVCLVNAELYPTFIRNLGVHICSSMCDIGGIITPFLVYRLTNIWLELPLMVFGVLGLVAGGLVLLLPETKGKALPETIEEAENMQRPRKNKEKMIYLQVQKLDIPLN

OCTN1 (SLC22A4) = biological target: T3, OCTN1 (SLC22A4) (Homo sapiens, UniProt Q9H015); conditions: OCTN1, cell type Fibroblasts
T3 sequence (Q9H015 1-551): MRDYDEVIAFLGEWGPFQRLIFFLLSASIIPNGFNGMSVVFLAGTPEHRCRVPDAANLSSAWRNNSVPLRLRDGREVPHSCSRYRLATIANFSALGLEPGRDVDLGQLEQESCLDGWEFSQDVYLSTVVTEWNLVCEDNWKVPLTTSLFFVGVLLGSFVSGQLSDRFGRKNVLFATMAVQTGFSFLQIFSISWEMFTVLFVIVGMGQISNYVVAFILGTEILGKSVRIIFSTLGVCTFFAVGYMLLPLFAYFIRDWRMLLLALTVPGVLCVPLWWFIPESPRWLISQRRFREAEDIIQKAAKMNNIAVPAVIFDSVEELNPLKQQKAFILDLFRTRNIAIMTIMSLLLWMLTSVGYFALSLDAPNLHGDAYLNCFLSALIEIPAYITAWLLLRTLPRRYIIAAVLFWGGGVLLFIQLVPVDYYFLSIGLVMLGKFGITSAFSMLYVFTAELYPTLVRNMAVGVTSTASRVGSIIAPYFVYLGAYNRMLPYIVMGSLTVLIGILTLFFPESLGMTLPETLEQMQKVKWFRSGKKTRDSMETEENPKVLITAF

OCT1 (SLC22A1) = biological target: T4, OCT1 (SLC22A1) (Homo sapiens, UniProt O15245); conditions: OCT1, cell type Xenopus
T4 construct: host or cells: HeLa; Xenopus
T4 sequence (O15245 1-554): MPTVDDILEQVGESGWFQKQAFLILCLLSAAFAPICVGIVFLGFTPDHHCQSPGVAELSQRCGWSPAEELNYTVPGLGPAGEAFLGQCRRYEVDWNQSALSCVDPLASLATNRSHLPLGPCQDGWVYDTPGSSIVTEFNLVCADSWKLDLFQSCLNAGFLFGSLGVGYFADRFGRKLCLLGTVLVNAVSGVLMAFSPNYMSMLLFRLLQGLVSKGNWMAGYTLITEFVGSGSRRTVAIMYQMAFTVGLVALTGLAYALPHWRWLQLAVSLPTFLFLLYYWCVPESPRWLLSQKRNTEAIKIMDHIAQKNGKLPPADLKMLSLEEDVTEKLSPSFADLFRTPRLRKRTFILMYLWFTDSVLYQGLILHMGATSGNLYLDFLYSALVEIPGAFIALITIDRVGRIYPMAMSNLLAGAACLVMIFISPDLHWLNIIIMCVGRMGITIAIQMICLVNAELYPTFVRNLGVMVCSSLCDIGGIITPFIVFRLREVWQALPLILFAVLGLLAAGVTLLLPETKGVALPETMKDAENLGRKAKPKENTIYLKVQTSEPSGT

[1] = tested on: RFC1-transfected MTX^R ZR75 cell line; conditions: RFC1 transfection into transport-deficient MTX^R ZR75 cells, relative to control cell clones
[2] = tested on: reduced folate carrier (RFC); conditions: read-out: Km for MTX, approximately

SMILES: CC(=O)O[C@H](CC(=O)[O-])C[N+](C)(C)C [Acetyl-L-carnitine]
- KT (OCTN2 (SLC22A5); OCTN2, cell type HEK293): 8.5 µM

SMILES: NC12CC3CC(CC(C3)C1)C2 [Amantadine]
- KT (OCT2 (SLC22A2); OCT2, cell type Xenopus): 27 µM

SMILES: C[N+](C)(C)C[C@@H](O)CC(=O)[O-] [D-Carnitine]
- KT (OCTN2 (SLC22A5); OCTN2, cell type HEK293): 10.9 µM
- KT (OCTN2 (SLC22A5); OCTN2, cell type Xenopus): 98 µM

SMILES: NCCc1ccc(O)c(O)c1 [Dopamine]
- KT (OCT2 (SLC22A2); OCT2, cell type HEK293): 330 µM
- KT (OCT2 (SLC22A2); OCT2, cell type Xenopus): 390 µM

SMILES: NCCc1c[nH]cn1 [Histamine]
- KT (OCT2 (SLC22A2); OCT2, cell type Xenopus): 1300 µM

SMILES: C[N+](C)(C)C[C@H](O)CC(=O)[O-] [L-Carnitine]
- KT (OCTN2 (SLC22A5); OCTN2, cell type HEK293): 4.34 µM and 4.3 µM
- KT (OCTN2 (SLC22A5); OCTN2, cell type JAR): 3.5 µM
- KT (OCTN2 (SLC22A5); OCTN2, cell type Xenopus): 4.8 µM
- KT (OCTN1 (SLC22A4)): 6.6 µM

SMILES: C[n+]1ccc(-c2ccccc2)cc1 [MPP, 1-methyl-4-phenylpyridinium]
- KT (OCT3 (SLC22A3); OCT3, cell type HRPE): 47 µM
- KT (OCT1 (SLC22A1)): 14.6 µM
- KT (OCT2 (SLC22A2); OCT2, cell type HEK293): 16 µM

SMILES: CN(Cc1cnc2nc(N)nc(N)c2n1)c1ccc(C(=O)N[C@@H](CCC(=O)O)C(=O)O)cc1 [MTX, Methotrexate]
- increase in 6-hour MTX uptake [1]: 20 fold
- increase in sensitivity to MTX [1]: 250 fold
- Km [2]: 0.8 to 26 µM

SMILES: CC12CC3CC(C)(C1)CC(N)(C3)C2 [Memantine]
- KT (OCT2 (SLC22A2); OCT2, cell type Xenopus): 34 µM

SMILES: NC[C@H](O)c1ccc(O)c(O)c1 [Norepinephrine]
- KT (OCT2 (SLC22A2); OCT2, cell type Xenopus): 1900 µM

SMILES: NCCc1c[nH]c2ccc(O)cc12 [Serotonin]
- KT (OCT2 (SLC22A2); OCT2, cell type Xenopus): 80 µM

SMILES: CC[N+](CC)(CC)CC [TEA, tetraethylammonium]
- KT (OCT3 (SLC22A3); OCT3, cell type HeLa): 2500 µM
